Assay results: patent publication US8242159B2, “1,3-dihydro-5-isobenzofurancarbonitrile derivatives and pharmaceutical composition thereof for the treatment of premature ejaculation” (Dong-A Pharmaceutical. Co., Ltd, priority 2007, dated 2012)

Tested on: Male Wistar rats
Experiment: p-PCA-induced ejaculation in anesthetized rats (ejaculation-delaying effect)
Format: in vivo, rat
Settings: for Ratio: Number of responding animals/total animal number: 50 mg/kg oral in 1% HPMC, p-PCA 5 mg/kg i.p. 80 min later, observed 30 min; for Latency: Time to display the ejaculatory response: 50 mg/kg oral, p-PCA 5 mg/kg i.p., mean ± standard deviation of responding rats
Experimental: The compounds prepared in the above examples were evaluated to determine whether they have an effect of delaying ejaculation. The evaluation was carried out using an animal model according to a method described in Yonezawa et al., Life Sci. 2000, 67(25) p 3031-9. Male Wistar rats weighing 240-260 g were used. Each compound was suspended in 1% HPMC, and then administered orally to each animal. After 60 min, the animals were anesthetized and fixed. 20 min later, para-chloroamphetamine (p-PCA) was intraperitoneally administered in a dose of 5 mg/kg in order to induce ejaculation. […] An ejaculatory response was considered to be elicited when rhythmic contraction of bulbocavernosus muscles and semen discharge occurs. Six or more animals were used for each compound. A Fisher's […] test was performed for the comparison of the proportion of responding rats (ejaculated rats) to determine significance of difference between a treatment group and a vehicle control. The time to reach ejaculation was expressed as mean±standard deviation.
Each test compound was administered at a dose of 50 mg/kg. Ejaculation was elicited in all seven animals of a control group.

Structure (SMILES) | Ratio: Number of responding animals/total animal number | Latency: Time to display the ejaculatory response [s]
Cc1ccc(C2(CCN(C)C)OCc3cc(C#N)ccc32)cc1.Cl (centres unmarked) [Ex. 25, 1-{2-(dimethylamino)ethyl}-1-(4-tolyl)-1,3-dihydro-5-isobenzofurancarbonitrile hydrochloride] | 4/9 | 841 ± 254
Cc1ccc(C2(CCCn3ccnc3)OCc3cc(C#N)ccc32)cc1 (centres unmarked) [Ex. 26, 1-{3-(imidazole-1-yl)propyl}-1-(4-tolyl)-1,3-dihydro-5-isobenzofurancarbonitrile] | 4/7 | 904 ± 304
Cc1ccc(C2(CCCn3ccnc3)OCc3cc(C#N)ccc32)cc1.Cl (centres unmarked) [Ex. 27, 1-{3-(imidazole-1-yl)propyl}-1-(4-tolyl)-1,3-dihydro-5-isobenzofurancarbonitrile hydrochloride] | 3/7 | 864 ± 257
Cc1ccc(C2(CCn3ccnc3)OCc3cc(C#N)ccc32)cc1 (centres unmarked) [Ex. 28, 1-{2-(imidazole-1-yl)ethyl}-1-(4-tolyl)-1,3-dihydro-5-isobenzofurancarbonitrile] | 3/7 | 734 ± 451
Cc1ccc(C2(CCn3ccnc3)OCc3cc(C#N)ccc32)cc1.Cl (centres unmarked) [Ex. 29, 1-{2-(imidazole-1-yl)ethyl}-1-(4-tolyl)-1,3-dihydro-5-isobenzofurancarbonitrile hydrochloride] | 5/9 | 1054 ± 287
Cc1ccc(C2(CCCn3cccn3)OCc3cc(C#N)ccc32)cc1 (centres unmarked) [Ex. 30, 1-{3-(pyrazole-1-yl)propyl}-1-(4-tolyl)-1,3-dihydro-5-isobenzofurancarbonitrile] | 3/7 | 876 ± 300
Cc1ccc(C2(CCCn3cccn3)OCc3cc(C#N)ccc32)cc1.Cl (centres unmarked) [Ex. 31, 1-{3-(pyrazole-1-yl)propyl}-1-(4-tolyl)-1,3-dihydro-5-isobenzofurancarbonitrile hydrochloride] | 3/9 | 754 ± 401
Cc1ccc(C2(CCn3cccn3)OCc3cc(C#N)ccc32)cc1 (centres unmarked) [Ex. 32, 1-{2-(pyrazole-1-yl)ethyl}-1-(4-tolyl)-1,3-dihydro-5-isobenzofurancarbonitrile] | 4/9 | 1000 ± 401
Cc1ccc(C2(CCn3cccn3)OCc3cc(C#N)ccc32)cc1.Cl (centres unmarked) [Ex. 33, 1-{2-(pyrazole-1-yl)ethyl}-1-(4-tolyl)-1,3-dihydro-5-isobenzofurancarbonitrile hydrochloride] | 3/7 | 698 ± 374
CN(C)CCCC1(c2ccc(N(C)C)cc2)OCc2cc(C#N)ccc21 (centres unmarked) [Ex. 34, 1-(4-dimethylaminophenyl)-1-{3-(dimethylamino)propyl}-1,3-dihydro-5-isobenzofurancarbonitrile] | 4/9 | 807 ± 304
CN(C)CCCC1(c2ccc(N(C)C)cc2)OCc2cc(C#N)ccc21.Cl (centres unmarked) [Ex. 36, 1-(4-dimethylaminophenyl)-1-{3-(dimethylamino)propyl}-1,3-dihydro-5-isobenzofurancarbonitrile hydrochloride] | 2/6 | 554 ± 77
CN(C)c1ccc(C2(CCCn3ccnc3)OCc3cc(C#N)ccc32)cc1 (centres unmarked) [Ex. 37, 1-(4-dimethylaminophenyl)-1-{3-(imidazole-1-yl)propyl}-1,3-dihydro-5-isobenzofurancarbonitrile] | 4/7 | 950 ± 241
CN(C)c1ccc(C2(CCCn3ccnc3)OCc3cc(C#N)ccc32)cc1.Cl (centres unmarked) [Ex. 38, 1-(4-dimethylaminophenyl)-1-{3-(imidazole-1-yl)propyl}-1,3-dihydro-5-isobenzofurancarbonitrile hydrochloride] | 4/7 | 764 ± 304
CN(C)CCCC1(c2cccs2)OCc2cc(C#N)ccc21 (centres unmarked) [Ex. 39, 1-{3-(dimethylamino)propyl}-1-(2-thienyl)-1,3-dihydro-5-isobenzofurancarbonitrile] | 5/9 | 854 ± 287
CN(C)CCCC1(c2cccs2)OCc2cc(C#N)ccc21.Cl (centres unmarked) [Ex. 41, 1-{3-(dimethylamino)propyl}-1-(2-thienyl)-1,3-dihydro-5-isobenzofurancarbonitrile hydrochloride] | 1/7 | 702
CN(C)CCC1(c2cccs2)OCc2cc(C#N)ccc21 (centres unmarked) [Ex. 42, 1-{2-(dimethylamino)ethyl}-1-(2-thienyl)-1,3-dihydro-5-isobenzofurancarbonitrile] | 4/9 | 906 ± 275
CN(C)CCC1(c2cccs2)OCc2cc(C#N)ccc21.Cl (centres unmarked) [Ex. 43, 1-{2-(dimethylamino)ethyl}-1-(2-thienyl)-1,3-dihydro-5-isobenzofurancarbonitrile hydrochloride] | 3/7 | 888 ± 275
N#Cc1ccc2c(c1)COC2(CCCn1ccnc1)c1cccs1 (centres unmarked) [Ex. 44, 1-{3-(imidazole-1-yl)propyl}-1-(2-thienyl)-1,3-dihydro-5-isobenzofurancarbonitrile] | 4/7 | 904 ± 350
Cl.N#Cc1ccc2c(c1)COC2(CCCn1ccnc1)c1cccs1 (centres unmarked) [Ex. 46, 1-{3-(imidazole-1-yl)propyl}-1-(2-thienyl)-1,3-dihydro-5-isobenzofurancarbonitrile hydrochloride] | 0/7 | 
N#Cc1ccc2c(c1)COC2(CCn1ccnc1)c1cccs1 (centres unmarked) [Ex. 47, 1-{2-(imidazole-1-yl)ethyl}-1-(2-thienyl)-1,3-dihydro-5-isobenzofurancarbonitrile] | 4/7 | 814 ± 278
Cl.N#Cc1ccc2c(c1)COC2(CCn1ccnc1)c1cccs1 (centres unmarked) [Ex. 48, 1-{2-(imidazole-1-yl)ethyl}-1-(2-thienyl)-1,3-dihydro-5-isobenzofurancarbonitrile hydrochloride] | 3/7 | 904 ± 321
N#Cc1ccc2c(c1)COC2(CCCn1cccn1)c1cccs1 (centres unmarked) [Ex. 49, 1-{3-(pyrazole-1-yl)propyl}-1-(2-thienyl)-1,3-dihydro-5-isobenzofurancarbonitrile] | 5/9 | 807 ± 301
Cl.N#Cc1ccc2c(c1)COC2(CCCn1cccn1)c1cccs1 (centres unmarked) [Ex. 50, 1-{3-(pyrazole-1-yl)propyl}-1-(2-thienyl)-1,3-dihydro-5-isobenzofurancarbonitrile hydrochloride] | 3/7 | 979 ± 347
N#Cc1ccc2c(c1)COC2(CCn1cccn1)c1cccs1 (centres unmarked) [Ex. 51, 1-{2-(pyrazole-1-yl)ethyl}-1-(2-thienyl)-1,3-dihydro-5-isobenzofurancarbonitrile] | 4/7 | 1042 ± 451
Cl.N#Cc1ccc2c(c1)COC2(CCn1cccn1)c1cccs1 (centres unmarked) [Ex. 52, 1-{2-(pyrazole-1-yl)ethyl}-1-(2-thienyl)-1,3-dihydro-5-isobenzofurancarbonitrile hydrochloride] | 3/7 | 869 ± 274
N#Cc1ccc2c(c1)COC2(CCCn1ccnc1)c1ccc(F)cc1 (centres unmarked) [Ex. 53, 1-(4-fluorophenyl)-1-{3-(imidazole-1-yl)propyl}-1,3-dihydro-5-isobenzofurancarbonitrile] | 4/9 | 1054 ± 320
Cl.N#Cc1ccc2c(c1)COC2(CCCn1ccnc1)c1ccc(F)cc1 (centres unmarked) [Ex. 54, 1-(4-fluorophenyl)-1-{3-(imidazole-1-yl)propyl}-1,3-dihydro-5-isobenzofurancarbonitrile hydrochloride] | 5/9 | 1247 ± 352
N#Cc1ccc2c(c1)COC2(CCn1ccnc1)c1ccc(F)cc1 (centres unmarked) [Ex. 55, 1-(4-fluorophenyl)-1-{2-(imidazole-1-yl)ethyl}-1,3-dihydro-5-isobenzofurancarbonitrile] | 4/7 | 1450 ± 671
Cl.N#Cc1ccc2c(c1)COC2(CCn1ccnc1)c1ccc(F)cc1 (centres unmarked) [Ex. 56, 1-(4-fluorophenyl)-1-{2-(imidazole-1-yl)ethyl}-1,3-dihydro-5-isobenzofurancarbonitrile hydrochloride] | 2/6 | 606 ± 130
N#Cc1ccc2c(c1)COC2(CCCn1cccn1)c1ccc(F)cc1 (centres unmarked) [Ex. 57, 1-(4-fluorophenyl)-1-{3-(pyrazole-1-yl)propyl}-1,3-dihydro-5-isobenzofurancarbonitrile] | 4/9 | 951 ± 342
